Results on 25 molecules are retold here after patent US5607691A, “Compositions and methods for enhanced drug delivery” (priority 1995, dated 1997).

Where a name gives a salt, the structure may show the parent alone.

The first series in a line: in vitro. To be noted: human, serum, Table 5; human serum, 37° C.; read-out: Serum Half-life (converted). The series is classed as in vitro ADME, human. The source says: Table 4 lists the serum half-lives for several model compounds and two representative pharmaceutical agent-chemical modifier complexes using an in vitro assay system described in the Experimental section below. Of course, the serum half-lives will vary in vivo depending upon the age and health condition of the patient. Each complex comprises a model compound or a pharmaceutical agent, a spacer group, and a chemical modifier. Many of the model compounds utilize 4-nitrophenyl(ethanol, propanol, or cyclohexanol) or 4-nitrophenylethylamine as the "model" pharmaceutical agent. A more complete listing of serum half-lives may be found in the Experimental section below.
General procedure for serum hydrolysis of pharmaceutical agent-modifier complexes
Stock solutions (6 mM) of the pharmaceutical agent-modifier complexes were prepared in ethanol (by vortexing, sonication or warming at 37° C. if necessary). If required for solubility, a drop of dimethylsulfoxide, dimethylformamide or methanol may be added. (Acetonitrile cannot be used because it deactivates the serum enzymes.)
HPLC separation methods were established for each study by dilution of the above stock solution (6 μl) in acetonitrile (1 ml) to give a 36 μM solution. Samples (10 μl) were injected onto a Nucleosil 5C8 (250×4 mmID) and guard column (11×4 mm ID) and eluted with a mobile phase of approximately 65% HPLC grade water and 35% of a solution of 0.1% trifluoroacetic acid in acetonitrile, the exact proportions being adjusted in each case to give optimum separation and run times.
Freshly defrosted human serum (3 ml, Sigma) was warmed at 37° C. for five minutes and then 60 μl of the agent-modifier complex stock solution was added with vortexing. […] The aliquots were added to 800 μl of 2% zinc sulfate solution in a 1.5 ml disposable microcentrifuge tube, vortexed immediately and centrifuged at 14,000 RPM for 3 minutes. The supernatants (10 μl) were then injected onto the HPLC and peak areas were used to determine the % remaining. Serum blanks were prepared similarly by addition of serum to the zinc sulfate solution followed by centrifugation, and time=0 samples were also prepared by adding serum to the zinc sulfate solution followed by addition of the complex and separation by centrifugation. The time=0 samples, as well as the original stock solutions, were also used to study the stability of the complex in the absence of enzyme. Half-lives were calculated using the equation
by plotting time (x) vs. ln % remaining (y) to obtain the slope (m) and the y intercept (b).
In the case of `CCCCCCCCCCCCCCCC(=O)OC(CC(=O)NCCCCCCOC(=O)OC1C(O)CC(OC2C(O)CC(OC3C(O)CC(OC4CCC5(C)C(CCC6C5CC(O)C5(C)C(C7=CC(=O)OC7)CCC65O)C4)OC3C)OC2C)OC1C)C[N+](C)(C)C` (centres unmarked) [digoxin-4"'-6-O-palmitoylcarnitinamido)hexyl carbonate, chloride salt], the half-life (commonly how long it takes for the measured level to halve) is 0.35 h.

In the case of `CC1OC(OC2C(O)CC(OC3C(O)CC(OC4CCC5(C)C(CCC6C5CC(O)C5(C)C(C7=CC(=O)OC7)CCC65O)C4)OC3C)OC2C)CC(O)C1OC(=O)OCCCCCCOC(=O)C[N+](C)(C)C` (centres unmarked) [digoxin-4"'-[1-(6-betainoyloxyhexyl)]carbonate, chloride salt], the half-life was 0.35 h.

As to `CC(=O)OC1CC(C(=O)O[C@H]2[C@@H](O)C[C@H](O[C@H]3[C@@H](O)C[C@H](O[C@H]4[C@@H](O)C[C@H](O[C@H]5CC[C@@]6(C)[C@H](CC[C@@H]7[C@@H]6C[C@@H](O)[C@]6(C)[C@@H](C8=CC(=O)OC8)CC[C@]76O)C5)O[C@@H]4C)O[C@@H]3C)O[C@@H]2C)[N+](C)(C)C1` (some centres unmarked) [digoxin-4"'-[(O-acetyl)-betonicine ester], chloride salt], the half-life was 0.03 h.

On to `CC1OC(OC2C(O)CC(OC3C(O)CC(OC4CCC5(C)C(CCC6C5CC(O)C5(C)C(C7=CC(=O)OC7)CCC65O)C4)OC3C)OC2C)CC(O)C1OC(=O)CCCN(C)C` (centres unmarked) [digoxin-4'"-4-(dimethylamino)butyrate], for which the half-life is 1.4 h.

In the case of `CC1OC(OC2C(O)CC(OC3C(O)CC(OC4CCC5(C)C(CCC6C5CC(O)C5(C)C(C7=CC(=O)OC7)CCC65O)C4)OC3C)OC2C)CC(O)C1OC(=O)CCC[N+](C)(C)C` (centres unmarked) [digoxin-4'"-(4-trimethylamino)butyrate bromide], the half-life is 7 h.

On to `CC(=O)OC(CC(=O)OC1C(O)CC(OC2C(O)CC(OC3C(O)CC(OC4CCC5(C)C(CCC6C5CC(O)C5(C)C(C7=CC(=O)OC7)CCC65O)C4)OC3C)OC2C)OC1C)C[N+](C)(C)C` (centres unmarked) [digoxin-4'"-(O-acetylcarnitinate) chloride salt], for which the half-life is 0.0833 h.

In the case of `CCCCCCCCCCCCCCCC(=O)OC(CC(=O)OC1C(O)CC(OC2C(O)CC(OC3C(O)CC(OC4CCC5(C)C(CCC6C5CC(O)C5(C)C(C7=CC(=O)OC7)CCC65O)C4)OC3C)OC2C)OC1C)C[N+](C)(C)C` (centres unmarked) [digoxin-4'"-(O-palmitoylcarnitinate) chloride salt], the half-life was 0.317 h.

With `CC1OC(OC2C(O)CC(OC3C(O)CC(OC4CCC5(C)C(CCC6C5CC(O)C5(C)C(C7=CC(=O)OC7)CCC65O)C4)OC3C)OC2C)CC(O)C1OC(=O)OCC[N+](C)(C)C` (centres unmarked) [digoxin-4'"-(choline chloride) carbonate ester], the half-life was 0.0219 h.

Turning to `CC(CCCC(=O)OC1C(O)CC(OC2C(O)CC(OC3C(O)CC(OC4CCC5(C)C(CCC6C5CC(O)C5(C)C(C7=CC(=O)OC7)CCC65O)C4)OC3C)OC2C)OC1C)OC(=O)CCC[N+](C)(C)C` (centres unmarked) [digoxin-4'"-[5-(4-trimethylaminobutyroyloxy)-hexanoate] bromide salt], the half-life was 14 h.

Turning to `CC1OC(OC2C(O)CC(OC3C(O)CC(OC4CCC5(C)C(CCC6C5CC(O)C5(C)C(C7=CC(=O)OC7)CCC65O)C4)OC3C)OC2C)CC(O)C1OC(=O)C1CCC[N+]1(C)C` (centres unmarked) [digoxin-4'"-stachydrine ester, chloride salt], the half-life is 0.085 h.

As for `CC1OC(OC2CCC3(C)C(CCC4C3CC(OC(=O)CCC[N+](C)(C)C)C3(C)C(C5=CC(=O)OC5)CCC43O)C2)CC(O)C1OC1CC(O)C(OC2CC3OC(=O)OC3C(C)O2)C(C)O1` (centres unmarked) [digoxin-12-(4-trimethylaminobutyrate)-3'",4'"-cyclic carbonate, bromide salt], the half-life is 96 h.

On to `CC1OC(OC2CCC3(C)C(CCC4C3CC(OC(=O)OC[N+](C)(C)C)C3(C)C(C5=CC(=O)OC5)CCC43O)C2)CC(O)C1OC1CC(O)C(OC2CC3OC(=O)OC3C(C)O2)C(C)O1` (centres unmarked) [digoxin-12-(N,N,N-trimethylaminomethyl)-carbonate 3"',4'"-cyclic carbonate, chloride salt], for which the half-life is 0.7 h.

In the case of `CC1OC(OC2CCC3(C)C(CCC4C3CC(OC(=O)OCC[N+](C)(C)C)C3(C)C(C5=CC(=O)OC5)CCC43O)C2)CC(O)C1OC1CC(O)C(OC2CC3OC(=O)OC3C(C)O2)C(C)O1` (centres unmarked) [digoxin-12-(choline carbonate)-3'",4'"-cyclic carbonate, bromide salt], the half-life is 29 h.

Turning to `C[C@H]1O[C@@H](O[C@H]2[C@@H](O)C[C@H](O[C@H]3[C@@H](O)C[C@H](O[C@H]4CC[C@@]5(C)[C@H](CC[C@@H]6[C@@H]5C[C@@H](OC(=O)OCCCCCCOC(=O)C[N+](C)(C)C)[C@]5(C)[C@@H](C7=CC(=O)OC7)CC[C@]65O)C4)O[C@@H]3C)O[C@@H]2C)C[C@@H]2OC(=O)O[C@@H]21` [digoxin-12-[1-(6-betainoyloxyhexyl)]carbonate-3"',4"'-cyclic carbonate, chloride salt], the half-life is 470 h.

With `CC1OC(OC2CCC3(C)C(CCC4C3CC(OC(=O)CCCN(C)C)C3(C)C(C5=CC(=O)OC5)CCC43O)C2)CC(O)C1OC1CC(O)C(OC2CC3OC(=O)OC3C(C)O2)C(C)O1` (centres unmarked) [digoxin-12-[4-(N,N-dimethylamino)butyrate]-3"',4'"-cyclic carbonate, hydrochloride salt], the half-life is 24 h.

In the case of `CC(CCCC(=O)OC1CC2C(CCC3CC(OC4CC(O)C(OC5CC(O)C(OC6CC7OC(=O)OC7C(C)O6)C(C)O5)C(C)O4)CCC32C)C2(O)CCC(C3=CC(=O)OC3)C12C)OC(=O)CCC[N+](C)(C)C` (centres unmarked) [digoxin-12-[5-(4-trimethylaminobutyroyloxy)-hexanoate]-3'",4'"-cyclic carbonate], the half-life was 504 h.

On to `CC1OC(OC2CCC3(C)C(CCC4C3CC(OC(=O)CCCCC[N+](C)(C)C)C3(C)C(C5=CC(=O)OC5)CCC43O)C2)CC(O)C1OC1CC(O)C(OC2CC3OC(=O)OC3C(C)O2)C(C)O1` (centres unmarked) [digoxin-12-[6-(N,N,N-trimethylamino)hexanoate]-3'"-4'"-cyclic carbonate, bromide salt], for which the half-life is 336 h.

For the molecule `CC1OC(OC2CCC3(C)C(CCC4C3CC(OC(=O)CCCCCN(C)C)C3(C)C(C5=CC(=O)OC5)CCC43O)C2)CC(O)C1OC1CC(O)C(OC2CC3OC(=O)OC3C(C)O2)C(C)O1` (centres unmarked) [digoxin-12-[6-(N,N-dimethylamino)hexanoate]-3'",4'"-cyclic carbonate], the half-life is 605 h.

Consider `C[C@H]1O[C@@H](O[C@H]2[C@@H](O)C[C@H](O[C@H]3[C@@H](O)C[C@H](O[C@H]4CC[C@@]5(C)[C@H](CC[C@@H]6[C@@H]5C[C@@H](OC(=O)OC[N+](C)(C)CCCCCC(=O)O)[C@]5(C)[C@@H](C7=CC(=O)OC7)CC[C@]65O)C4)O[C@@H]3C)O[C@@H]2C)C[C@@H]2OC(=O)O[C@@H]21` [digoxin-12-[N-(5-carboxypentyl)-N,N-dimethylaminomethyl carbonate]-3"',4"'-cyclic carbonate, bromide salt], for which the half-life was 0.8 h.

`C[C@H]1O[C@@H](O[C@H]2[C@@H](O)C[C@H](O[C@H]3[C@@H](O)C[C@H](O[C@H]4CC[C@@]5(C)[C@H](CC[C@@H]6[C@@H]5C[C@@H](OC(=O)c5cccnc5)[C@]5(C)[C@@H](C7=CC(=O)OC7)CC[C@]65O)C4)O[C@@H]3C)O[C@@H]2C)C[C@@H]2OC(=O)O[C@@H]21` [digoxin-12-nicotinate ester-3"',4"'-cyclic carbonate]: the half-life was 331 h.

As to `C[C@H]1O[C@@H](O[C@H]2[C@@H](O)C[C@H](O[C@H]3[C@@H](O)C[C@H](O[C@H]4CC[C@@]5(C)[C@H](CC[C@@H]6[C@@H]5C[C@@H](OC(=O)[C@@H]5CCC[N+]5(C)C)[C@]5(C)[C@@H](C7=CC(=O)OC7)CC[C@]65O)C4)O[C@@H]3C)O[C@@H]2C)C[C@@H]2OC(=O)O[C@@H]21` [digoxin-12-stachydrine ester-3"',4"'-cyclic carbonate, chloride salt], the half-life was 4.9 h.

Turning to `C[C@]12CCC(=O)C(OC(=O)OCC[N+](C)(C)C)=C1CC[C@@H]1[C@@H]2CC[C@]2(C)C(=O)CC[C@@H]12` [formestane-4-choline carbonate, bromide salt], the half-life was 0.433 h.

Consider `CCCC[N+](C)(C)CCOC(=O)Cc1c(C)n(C(=O)c2ccc(Cl)cc2)c2ccc(OC)cc12` [indomethacin 2-(N-(1-butyl)-N,N-dimethylaminoethyl ester, bromide salt], for which the half-life is 0.0106 h.

As for `COc1ccc2c(c1)c(CC(=O)OCC[N+](C)(C)CCO)c(C)n2C(=O)c1ccc(Cl)cc1` [indomethacin 2-(N-(2-hydroxyethyl)-N,N-dimethyl) aminoethyl ester, bromide salt], the half-life was 0.0163 h.

`COc1ccc2c(c1)c(CC(=O)OCCNC(=O)CCCCC[N+](C)(C)C)c(C)n2C(=O)c1ccc(Cl)cc1` [indomethacin 2-[N-(6'-N',N',N'-trimethylamino)-hexanamido]ethyl ester, iodide salt]: the half-life was 22.6 h.

Staying with this series, now noted: human, serum, untitled table of digoxin derivatives (position/substituent); assay not given; read-out: Half Life (converted).
Turning to `CC1OC(OC2CCC3(C)C(CCC4C3CC(OC(=O)CCC[N+](C)(C)C)C3(C)C(C5=CC(=O)OC5)CCC43O)C2)CC(O)C1OC1CC(O)C(OC2CC3OC(=O)OC3C(C)O2)C(C)O1` (centres unmarked) [digoxin-12-(4-trimethylaminobutyrate)-3'",4'"-cyclic carbonate, bromide salt], the half-life was 96 h.
